Values quoted from earlier work in patent publication US20260263442A1, “METHOD FOR TREATING L-DOPA-INDUCED DYSKINESIA USING BEFIRADOL” (Neurolixis, Inc., priority 2023, published 2026).

Legend:
[1] = test system: striatal 5-HT1A receptors; settings: striatum of rat, cat, macaque and human; cited from earlier work
[2] = test system: L-DOPA-induced dyskinesia in Parkinson's patients; settings: human, in vivo; cited from earlier work
[3] = test system: L-DOPA-induced dyskinesia in Parkinson's patients; settings: cited from earlier work; for Efficacy to alleviate LID, clinically tested / Effect on motor symptoms of Parkinson's disease: human, in vivo

Cc1ccc(CNCC2(F)CCN(C(=O)c3ccc([18F])c(Cl)c3)CC2)nc1 [^18F-NLX-112]
Labelling of 5-HT1A receptors, PET brain imaging [1]: consistently labelled striatal 5-HT1A receptors

NC12CC3CC(CC(C3)C1)C2 [amantadine]
Proportion of patients who are non-responders [2]: about ⅓ | Side effects limiting use [2]: hallucinations, confusion, leg edema, orthostatic hypotension

O=C1CC2(CCCC2)CC(=O)N1CCCCN1CCN(c2ncccn2)CC1 [buspirone]
Efficacy to alleviate LID, clinically tested [3]: limited efficacy

c1cc2c(c(N3CCNCC3)c1)OCCO2 [eltoprazine]
Efficacy to alleviate LID, clinically tested [3]: limited efficacy

Fc1ccc(-c2cncc(CNC[C@H]3CCc4ccccc4O3)c2)cc1 [sarizotan]
Effect on L-DOPA efficacy, phase 2b study ([3]; Parkinson's patients with troublesome L-DOPA-induced dyskinesia): two of the three tested doses significantly reduced L-DOPA efficacy | Effect on motor symptoms of Parkinson's disease [3]: no beneficial effect or even the opposite effect | Efficacy to alleviate LID, clinically tested [3]: limited efficacy | Reduction of LID, two phase 3 clinical trials ([3]; third (and lowest) dose): ineffective in reducing LID

O=C1[C@@H]2[C@H]3CC[C@H](C3)[C@@H]2C(=O)N1CCCCN1CCN(c2ncccn2)CC1 [tandospirone]
Effect on motor symptoms of Parkinson's disease [3]: no beneficial effect or even the opposite effect | Efficacy to alleviate LID, clinically tested [3]: limited efficacy
